Laboratory results published in the supplement of paper PMC10307832.

What was measured:
Assay in all cases: relative viability (nuclei count vs DMSO), 5 days (fraction); higher = more cells survive
Neratinib + Olaparib = compound: CCOc1cc2ncc(C#N)c(Nc3ccc(OCc4ccccn4)c(Cl)c3)c2cc1NC(=O)/C=C/CN(C)C [Neratinib] + O=C(c1cc(Cc2n[nH]c(=O)c3ccccc23)ccc1F)N1CCN(C(=O)C2CC2)CC1 [Olaparib] (partner 8 µM)
Procedure, shortened: (§1)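 One day after seeding in 1536-well plates, lung cancer cell lines were dosed by pin tool. Dosing was either single-drug or a fixed anchor-drug dose plus five library-drug doses (not always all listed) in √10 steps. After 5 days, nuclei were stained in one fix-and-stain step and counted on 4× images, and relative viability is the nuclei count of treated wells over that of vehicle wells, given as the median of duplicate plates.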

Neratinib + Palbociclib = compound: CCOc1cc2ncc(C#N)c(Nc3ccc(OCc4ccccn4)c(Cl)c3)c2cc1NC(=O)/C=C/CN(C)C [Neratinib] + CC(=O)c1c(C)c2cnc(Nc3ccc(N4CCNCC4)cn3)nc2n(C2CCCC2)c1=O [Palbociclib] (partner 0.5 µM)
Procedure, shortened: as §1

Neratinib + Pemetrexed = compound: CCOc1cc2ncc(C#N)c(Nc3ccc(OCc4ccccn4)c(Cl)c3)c2cc1NC(=O)/C=C/CN(C)C [Neratinib] + Nc1nc2[nH]cc(CCc3ccc(C(=O)N[C@@H](CCC(=O)O)C(=O)O)cc3)c2c(=O)[nH]1 [Pemetrexed] (partner 0.2 µM)
Procedure, shortened: as §1

Neratinib + Alpelisib = compound: CCOc1cc2ncc(C#N)c(Nc3ccc(OCc4ccccn4)c(Cl)c3)c2cc1NC(=O)/C=C/CN(C)C [Neratinib] + Cc1nc(NC(=O)N2CCC[C@H]2C(N)=O)sc1-c1ccnc(C(C)(C)C(F)(F)F)c1 [Alpelisib] (partner 2 µM)
Procedure, shortened: as §1

| Cell Line | relative viability (Neratinib + Olaparib; first compound 0.01 µM) | relative viability (Neratinib + Olaparib; first compound 0.03162 µM) | relative viability (Neratinib + Olaparib; first compound 0.1 µM) | relative viability (Neratinib + Olaparib; first compound 0.3162 µM) | relative viability (Neratinib + Olaparib; first compound 1 µM) | relative viability (Neratinib + Palbociclib; first compound 0.01 µM) | relative viability (Neratinib + Palbociclib; first compound 0.03162 µM) | relative viability (Neratinib + Palbociclib; first compound 0.1 µM) | relative viability (Neratinib + Palbociclib; first compound 0.3162 µM) | relative viability (Neratinib + Palbociclib; first compound 1 µM) | relative viability (Neratinib + Pemetrexed; first compound 0.01 µM) | relative viability (Neratinib + Pemetrexed; first compound 0.03162 µM) | relative viability (Neratinib + Pemetrexed; first compound 0.1 µM) | relative viability (Neratinib + Pemetrexed; first compound 0.3162 µM) | relative viability (Neratinib + Pemetrexed; first compound 1 µM) | relative viability (Neratinib + Alpelisib; first compound 0.01 µM) | relative viability (Neratinib + Alpelisib; first compound 0.03162 µM) | relative viability (Neratinib + Alpelisib; first compound 0.1 µM) | relative viability (Neratinib + Alpelisib; first compound 0.3162 µM) | relative viability (Neratinib + Alpelisib; first compound 1 µM) |
| --- | --- | --- | --- | --- | --- | --- | --- | --- | --- | --- | --- | --- | --- | --- | --- | --- | --- | --- | --- | --- |
| HCC-15 | 0.697 | 0.819 | 0.673 | 0.667 | 0.659 | 0.764 | 0.828 | 0.738 | 0.692 | 0.511 | 0.205 | 0.222 | 0.233 | 0.227 | 0.205 | 0.931 | 0.92 | 0.864 | 0.859 | 0.584 |
| HCC-44 | 1.04 | 1.03 | 0.899 | 0.94 | 0.979 | 1.02 | 0.969 | – | 0.926 | 0.966 | 0.63 | 0.686 | 0.635 | 0.648 | 0.671 | 0.97 | 0.95 | 0.702 | 0.838 | 0.754 |
| HCC-78 | 0.996 | 0.87 | 0.817 | 0.798 | 0.396 | 0.467 | 0.479 | 0.409 | 0.424 | 0.463 | 0.889 | 0.925 | 0.883 | 0.898 | 0.885 | 0.359 | 0.344 | 0.329 | 0.254 | 0.225 |
| HCC-366 | 0.36 | 0.324 | 0.267 | 0.347 | 0.404 | 0.418 | 0.464 | 0.353 | 0.431 | 0.211 | 0.202 | 0.147 | 0.158 | 0.14 | 0.171 | 0.716 | 0.418 | 0.402 | – | 0.35 |
| HCC-827 | 0.624 | 0.763 | 0.665 | 0.272 | 0.107 | 0.503 | 0.509 | 0.513 | 0.194 | 0.15 | 0.273 | 0.271 | 0.191 | 0.153 | 0.13 | 1.05 | 1.11 | 0.967 | 0.583 | 0.182 |
| HOP-62 | 0.416 | 0.459 | 0.367 | 0.412 | 0.344 | 0.455 | 0.475 | 0.383 | – | 0.303 | 0.323 | 0.31 | 0.206 | – | 0.241 | 0.903 | 1 | 0.847 | 0.967 | – |
| IA-LM | 0.985 | 0.82 | 0.715 | 0.838 | 0.517 | – | – | – | – | – | – | – | – | – | – | 0.846 | 0.894 | 0.647 | 0.782 | 0.486 |
| LC-2-ad | 0.777 | – | 0.651 | 0.756 | 0.785 | 0.487 | 0.507 | 0.41 | 0.442 | 0.499 | 0.25 | 0.258 | 0.274 | 0.282 | 0.24 | 0.923 | 0.95 | 0.734 | 0.783 | 0.312 |
